According to ChEMBL document CHEMBL3232724, “Decreasing acidity in a series of aldose reductase inhibitors: 2-Fluoro-4-(1H-pyrrol-1-yl)phenol as a scaffold for improved membrane permeation” (Bioorg Med Chem, 2014):

Legend:
[1] = molecular target: Aldo-keto reductase family 1 member B1 (Rattus norvegicus) (UniProt P07943); experiment: Inhibition of Fischer-344 rat lens ALR2 using D, L-glyceraldehyde as substrate at 100 uM by spectrophotometry; assay type: tissue-based; settings: Lens of camera-type eye
[2] = molecular target: Aldo-keto reductase family 1 member B1 (Rattus norvegicus, UniProt P07943); experiment: Inhibition of Fischer-344 rat lens ALR2 using D, L-glyceraldehyde as substrate by spectrophotometry; assay type: tissue-based, Lens of camera-type eye
[3] = molecular target: Aldo-keto reductase family 1 member A1 (Rattus norvegicus, UniProt P51635); experiment: Inhibition of Fischer-344 rat kidney ALR1 using D-glucuronate as substrate by spectrophotometry
Rattus norvegicus = species on record: Rattus norvegicus; experiment: Selectivity index, ratio of IC50 for Fischer-344 rat kidney ALR1 to IC50 for Fischer-344 rat lens ALR2; assay type: tissue-based; settings: Lens of camera-type eye
[4] = Inhibition of glucose-induced sorbitol accumulation in Wistar rat lens at 10 uM after 3 hrs by fluorescence assay (reference value: 755.27 +/- 19.7 nmol/g); assay type: functional, Lens of camera-type eye
[5] = Inhibition of glucose-induced sorbitol accumulation in Wistar rat lens at 50 uM after 3 hrs by fluorescence assay (reference value: 755.27 +/- 19.7 nmol/g); assay type: functional, Lens of camera-type eye
Jejunum [6] = experiment: Apparent permeability coefficient in Sprague-Dawley rat jejunum at 100 uM; assay type: ADME, tissue-based
[7] = Octanol-water distribution coefficient, log D of the compound at pH 7.4 by shake flask method; assay type: physicochemical
[8] = Octanol-water distribution coefficient, log D of the compound at pH 8 by shake flask method; assay type: physicochemical
[9] = Octanol-water distribution coefficient, log D of the compound at pH 8.5 by shake flask method; assay type: physicochemical
[10] = Octanol-water distribution coefficient, log D of the compound at pH 9.2 by shake flask method; assay type: physicochemical
[11] = Octanol-water distribution coefficient, log D of the compound at pH 11 by shake flask method; assay type: physicochemical
[12] = Octanol-water distribution coefficient, log D of the compound at pH 7 by shake flask method; assay type: physicochemical
Jejunum [13] = experiment: Apparent permeability coefficient in Sprague-Dawley rat jejunum at 10 uM; assay type: ADME, tissue-based
[14] = Octanol-water distribution coefficient, log D of the compound at pH 7.8 by shake flask method; assay type: physicochemical
[15] = Octanol-water distribution coefficient, log D of the compound at pH 8.25 by shake flask method; assay type: physicochemical
[16] = Octanol-water distribution coefficient, log D of the compound at pH 12 by shake flask method; assay type: physicochemical
Jejunum [17] = settings: rat

Chain of Aldo-keto reductase family 1 member A1 (P51635 whole entry, looked up): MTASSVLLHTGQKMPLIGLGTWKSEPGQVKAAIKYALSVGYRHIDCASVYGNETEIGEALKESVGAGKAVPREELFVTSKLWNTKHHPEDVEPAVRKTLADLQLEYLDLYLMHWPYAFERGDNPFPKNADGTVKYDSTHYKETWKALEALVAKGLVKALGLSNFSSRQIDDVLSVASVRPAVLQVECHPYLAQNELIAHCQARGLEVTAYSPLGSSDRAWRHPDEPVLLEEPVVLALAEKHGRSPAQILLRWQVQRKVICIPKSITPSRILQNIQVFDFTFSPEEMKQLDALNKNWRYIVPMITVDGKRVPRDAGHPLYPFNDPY

Row | SMILES | inhibition [1] | IC50 [2] | IC50 [3] | Ratio IC50 (Rattus norvegicus) | other results
1 | O=C(c1ccccc1)c1ccn(-c2ccc([N+](=O)[O-])c(/C=N/O)c2)c1 | 36.3% | – | – | – | –
2 | O=C(c1ccccc1)c1ccn(-c2cccc(O)c2)c1 | 21.5% | – | – | – | –
3 | O=C(c1ccccc1)c1ccn(-c2ccc(O)c(/C=N/O)c2)c1 | 35.3% | – | – | – | –
4 | O=C(c1ccccc1)c1ccn(-c2ccc(O)cc2)c1 | – | 55.4 µM | > 100 µM | > 1.8 | –
5 | O=C(c1ccccc1)c1ccn(-c2ccccc2O)c1 | 16.1% | – | – | – | –
6 | O=C(c1ccccc1)c1ccn(-c2cccc(/C=N/O)c2O)c1 | 23.5% | – | – | – | –
7 | O=C1OC2(c3ccc(O)cc3Oc3cc(O)ccc32)c2ccccc21 [FLUORESCEIN] | – | – | – | – | Papp (Jejunum [13]): 5.2 ucm/s
8 | O=C(c1ccccc1)c1ccn(-c2ccc(F)c(F)c2)c1 | 5.81% | – | – | – | –
9 | O=C(c1ccccc1)c1ccn(-c2ccc(O)c(F)c2)c1 | – | 10.1 µM | 38.2 µM | 3.79 | –
10 | O=C(c1ccn(-c2ccc(O)c(F)c2)c1)c1ccc(Br)cc1F | – | 24.8 µM | 35.5 µM | 1.43 | –
11 | COc1cccc(C(=O)c2ccn(-c3ccc(O)c(F)c3)c2)c1 | – | 6.75 µM | 28.7 µM | 4.25 | –
12 | O=C(c1ccccc1)c1ccn(-c2ccc(/C=N/O)c([N+](=O)[O-])c2)c1 | 60.5% | – | – | – | –
13 | O=C(c1ccc(-c2ccccc2)cc1)c1ccn(-c2ccc(O)c(F)c2)c1 | 14.2% | – | – | – | –
14 | O=C(c1ccccc1)c1ccn(-c2ccc(/C=N/O)c(O)c2)c1 | 33.7% | – | – | – | –
15 | COc1ccc(C(=O)c2ccn(-c3ccc(O)c(F)c3)c2)cc1 | – | 9.23 µM | 26.2 µM | 2.84 | –
16 | CC(C)NCC(O)COc1cccc2ccccc12 (configuration not stated) [PROPRANOLOL] | – | – | – | – | Papp (Jejunum [17]): 11.1 ucm/s

More lines, main results first:

Row | inhibition [1] | IC50 [2] | IC50 [3] | SMILES | Ratio IC50 (Rattus norvegicus) | other results
17 | – | 60.8 µM | > 100 µM | O=C(c1cccn1-c1ccc(O)c(F)c1)C(F)F | > 1.65 | –
18 | – | 41.7 µM | > 100 µM | O=C(c1ccc(OC(F)(F)F)cc1)c1ccn(-c2ccc(O)c(F)c2)c1 | > 2.4 | –
19 | – | 0.443 µM | 12.1 µM | O=C(c1ccccc1)c1cc(C(=O)C(F)F)n(-c2ccc(O)c(F)c2)c1 | 27.3 | Activity [4]: 487.07 nmol/g; Activity [5]: 396.89 nmol/g; Papp (Jejunum [6]): 6.4 ucm/s; logD [7]: 3.1; logD [8]: 2.98; logD [9]: 2.62; logD [10]: 1.72; logD [11]: 0.1; logD [12]: 3.41
20 | – | 1.04 µM | 20.4 µM | O=C(c1ccccc1)c1cc(C(=O)C(F)(F)F)n(-c2ccc(O)c(F)c2)c1 | 19.6 | Activity [4]: 586.08 nmol/g; Activity [5]: 462.49 nmol/g; logD [7]: 3.86; logD [14]: 3.5; logD [8]: 3.6; logD [15]: 3.3; logD [9]: 3.41; logD [10]: 2.48; logD [11]: 0.66; logD [16]: -0.38
21 | 43.7% | – | – | COc1ccc(C(=O)c2cccn2-c2ccc(O)c(F)c2)cc1 | – | –
22 | 37.2% | – | – | O=C(c1ccccc1)c1cccn1-c1ccc(O)c(F)c1 | – | –
23 | – | 73.8 µM | > 100 µM | O=C(c1cccn1-c1ccc(O)c(F)c1)C(F)(F)F | > 1.36 | –
